Test results from US11738065B2, “Polypeptides and analogues thereof for use in the treatment of diabetes and bone disorders” (UNIVERSITY OF ULSTER, priority 2015, dated 2023).
Where no end group is shown, it is not given here. [ ]: non-standard residue; d: D form.

Legend:
high fat fed mice [1] = assay: 42 day once daily study in high fat fed mice (body weight, composition, food intake, non-fasting glucose); type: in vivo; conditions: 25 nmol/kg once daily, 42 days
Excerpt: (§1) FIG. 10 illustrates body weight as measured for 3 days before and 42 days during (indicated by black horizontal bar) once daily treatment with saline vehicle (0.9% w/v NaCl), GIP/Xenin hybrid, GIP/Xenin hybrid Asp and GIP/Xenin hybrid Glu (each peptide at 25 nmol/kg bw). Values represent means±SEM for 5 mice;
FIG. 11A-11B illustrate (FIG. 11A) % Fat mass and (FIG. 11B) % Lean mass as measured by DEXA scanning in high fat fed mice following 42 days treatment with GIP/Xenin hybrid, GIP/Xenin hybrid Asp and GIP/Xenin hybrid Glu. Values represent means±SEM for 3-5 mice;
as §1, with “12” for “10”, “cumulative energy intake” for “body weight”, “days” for “days during”, “bar) during” for “bar)”, “3-5 mice. ^ΔP<0.05, ^ΔΔP<0.01, ^ΔΔΔP<0.001 compared to saline control;” for “5 mice;”
as §1, with “13” for “10”, “non fasting blood glucose” for “body weight”, “mice; […]” for “mice;”

high fat fed mice [2] = assay: DEXA bone mineral density and content after 42 days treatment; type: in vivo; conditions: P<0.05 and P<0.01 respectively
Method: The DEXA (dual energy X-ray absorptiometry) analysis [Lunar PIXImus, Inside Outside Sales] was performed on unconscious mice and the whole body was scanned. Various parameters like bone mineral density (BMD), bone mineral content (BMC), lean mass, fat mass and percentage of total fat were measured according to the manufacturer's instructions.

SaOS-2 cells [3] = assay: IGF-1 release from SaOS-2 cells; type: cell-based, Human; conditions: 1e-12-1e-6 M, 8 hours
Method: SaOS-2 cells were seeded at a density of 2e5 cells/well in 6-well plates in 10% FBS containing media. Media were changed 24 hours prior to experimentation with 0.1% FBS. Media was then removed, followed by an addition of 1 ml of test peptides of the invention (1e-12-1e-6 M). Plates were incubated at 37° C. for 8 hours. After incubation, media was collected and IGF-1 released in the supernatant was measured using IGF-1 Immunoassay kit (Quantikine, R&D Systems) according to the manufacturer's instructions. The concentration of IGF-1 in the samples was determined from a standard curve of recombinant human IGF-1 in the range of 0-60 ng/ml.

SaOS-2 cells [4] = assay: TGF-β release from SaOS-2 cells; type: cell-based, Human; conditions: 1e-12-1e-6 M, 8 hours
Method: Human osteoblast SaOS-2 cells [sourced from The European Collection of Cell Cultures (ECACC)] were seeded at a density of 2e5 cells/well in 24 well plates [Nunc, Roskilde, Denmark]. The cells were incubated in media [Life Technologies] supplemented with 10% FBS. Before adding test peptides of the invention, the media were changed with fresh 0.1% FBS-containing media 24 h previously. On the day of experimentation, media were removed and 1 ml of respective peptides of the invention GIP/Xenin, GIP/Xenin Asp and GIP/Xenin Glu [(DAla2)GIP/xenin-8-Gln, (DAla2)GIP/xenin-8-Gln(L-Asp), and (DAla2)GIP/xenin-8-Gln(L-Glu) respectively] (1e-12-1e-6 M) were added to each well. The plates were then incubated at 37° C. for a period of 8 hours. After incubation, media was collected and TGF-β released in the supernatant measured using a TGF-β Immunoassay kit (Quantikine, R&D Systems) according to the manufacturer's instructions. The concentration of TGF-β was calculated from a standard curve of recombinant human TGF-β ranging from […].

SaOS-2 cells [5] = assay: cAMP production in SaOS-2 cells; type: cell-based, Human; conditions: 60 min, 200 μM IBMX
Method: SaOS-2 cells were seeded at a density of 5e4 cells in 96-well plates. Cells were cultured in α-MEM 1× media supplemented with 10% FBS for 24 hours in order to allow attachment to the plate. Before the experiment, cells were washed with Hank's Balanced Salt Solution (HBSS). Cells were then incubated with various concentrations (1e-12-1e-6 M) of test peptides of the invention supplemented with 200 μM of 3-isobutyl-1-methylxanthine (IBMX). Plates were then incubated for 60 minutes at 37° C. Following this step, cells were washed 3 times with 150 μl PBS. Cell lysis was performed with 150 μl cell lysis buffer (R&D Systems) and a freeze (−20° C.)-thaw (37° C.) cycle was carried out. The contents were then collected into 500 μl tubes and centrifuged at 600 rpm for 10 min (4° C.). The supernatant was collected and cAMP was measured using a cAMP assay kit (R&D Systems) according to the manufacturer's instructions. The concentration of cAMP was calculated from a standard curve of cAMP ranging from 0 to 240 pmol/ml.

high fat fed mice [6] = assay: Glucose tolerance test after 42 days treatment; type: in vivo
Method: FIG. 14A-14B illustrate tests conducted after once daily treatment with saline, GIP/Xenin hybrid, GIP/Xenin hybrid Asp and GIP/Xenin hybrid Glu for 42 days. (FIG. 14A) Blood glucose before and after i.p injection of glucose (18 mmol/kg bw) alone in 18 hr fasted mice. (FIG. 14B) AUC values for blood glucose for 0-105 min are shown in insets. Values represent means±SEM for 6-7 mice. *P<0.05, **P<0.01 and ***P<0.001 compared to saline control;

high fat fed mice [7] = assay: Microcomputed tomography of tibia trabecular and cortical bone after 42 days treatment; type: in vivo; conditions: microCT
Method: The tibia was used to investigate trabecular and cortical bone microstructural morphology by microCT analysis with a Skyscan 1172 microtomograph (Bruker, Kontich, Belgium) equipped with an X-ray tube working at 69 kV/100 μA. The pixel size was fixed at 8.3 μm, the rotation step at 0.25° and exposure was performed with a 0.5-mm aluminum filter. Bone mass and morphometry parameters were calculated with the CTan software (release 1.11.4.2, Bruker). The trabecular parameters were assessed at the volume of interest (VOI), located 1 mm below the growth plate and spanning 2.5 mm in height. Trabecular bone volume (BV/TV, in %), trabecular number (Tb.N, in 1/mm) and trabecular separation (Tb.Sp, in μm) were measured according to guidelines and nomenclature proposed by the American Society for Bone and Mineral Research. Cortical parameters were determined at the midshaft tibia with a lab-made routine using ImageJ. […] (Ma.Ar), cortical area (Ct.Ar), total area (Tt.Ar), cortical thickness (Ct.Th, in μm) and cross-sectional moment of inertia (J in mm4) were also measured according to guidelines and nomenclature on bone histomorphometry proposed by the American Society for Bone and Mineral Research.

high fat fed mice [8] = assay: Three-point bending of bone after 42 days treatment; type: in vivo
Method: Femur and tibia bones were extracted at the end of the experiment using a scalpel and fine scissors, soft tissue removed and stored in 70% ethanol. Three-point bending strength was measured with a constant span length of 10 mm. Femurs were positioned horizontally with the anterior surface facing upwards, centered on the support and the pressing force was applied vertically to the midshaft of the bone. Each bone was tested with a loading speed of 2 mm/min until failure with a 90 N load cell. The load-time curve obtained was converted into a load-displacement curve by the MTS testSuite TW software (MTS, Créteil, France). Ultimate load and ultimate displacement were respectively defined as the maximum load and maximum displacement recorded before break-down of the bone. Stiffness was calculated as the slope of the elastic deformation of the bone. The total absorbed energy was defined as the total area under the load-displacement curve and represents the total energy absorbed by the midshaft femur. The yield was defined as the load necessary to initiate the transformation from elastic to plastic deformation. The post-yield energy was defined as the area under the load-displacement curve from yield until failure and represents the energy absorbed by bone during plastic deformation.

high fat fed mice [9] = assay: Insulin tolerance test after 42 days treatment; type: in vivo; conditions: insulin 25 U/kg i.p., non-fasted
Method: FIG. 15A-15B illustrate Blood glucose (FIG. 15A) and blood glucose AUC (FIG. 15B) values for 0-105 min (shown in inset) following 42 days treatment with saline, GIP/Xenin hybrid, GIP/Xenin hybrid Asp and GIP/Xenin hybrid Glu (each peptide at 25 nmol/kg bw), and subsequent insulin (25 U/kg bw) injection intraperitoneally (at t=0) in non-fasted mice. Values represent means±SEM for 5 mice. *P<0.05, **P<0.01 and ***P<0.001 compared to saline control;

Substance | Body weight, fat and lean mass, food intake (high fat fed mice [1]) | Tibia bone mineral density (high fat fed mice [2]) | IGF-1 release from SaOS-2 cells (SaOS-2 cells [3]) | TGF-β release from SaOS-2 cells (SaOS-2 cells [4]) | Lowest effective concentration for cAMP production (SaOS-2 cells [5]) | Blood glucose overall AUC after glucose challenge (high fat fed mice [6]; 0-105 min, glucose 18 mmol/kg) | Blood glucose at 30, 60 and 105 min after glucose challenge (high fat fed mice [6]; glucose 18 mmol/kg i.p.) | Cortical bone area, thickness and moment of inertia / structural properties of cortical bone (high fat fed mice [7]) | Bone ultimate load and stiffness (high fat fed mice [8]) | Hypoglycaemic response to exogenous insulin (high fat fed mice [9]) | Blood glucose concentrations after glucose challenge (high fat fed mice [6]; glucose 18 mmol/kg)
TYR-(d)ALA-GLU-GLY-THR-PHE-ILE-SER-ASP-TYR-SER-ILE-ALA-MET-HIS-PRO-GLN-GLN-PRO-TRP-ILE-LEU-GLY-ALA-ALA-ASP-ASP-ASP-ASP-ASP-ASP (Y[dA]EGTFISDYSIAMHPQQPWILGAADDDDDD; also: Gln side-chain L-Asp modification; listed as Homo sapiens) [GIP/Xenin Asp] | no significant change | reduced | dose-dependently stimulated | dose-dependently stimulated | 10 nM | significant (P<0.05) reduction in overall AUC measures | significantly (P<0.01 to P<0.001) | – | – | – | –
TYR-(d)ALA-GLU-GLY-THR-PHE-ILE-SER-ASP-TYR-SER-ILE-ALA-MET-HIS-PRO-GLN-GLN-PRO-TRP-ILE-LEU-GLY-ALA-ALA-GLU-GLU-GLU-GLU-GLU-GLU (Y[dA]EGTFISDYSIAMHPQQPWILGAAEEEEEE; also: Gln side-chain L-Glu modification; listed as Homo sapiens) [GIP/Xenin Glu] | no significant change | reduced | dose-dependently stimulated | dose-dependently stimulated | 1000 nM | – | – | reduced | negative effects (P<0.05 to P<0.001) | more pronounced hypoglycaemic response | also reduced blood glucose concentrations, but not as effectively as GIP/Xenin Asp
